# Data from the RepoRT retention time repository (doi:10.1093/pcp/pcn183).
# Structures can show the parent of a compound that is named as a salt.
# Experiment: RP, Waters ACQUITY UPLC BEH C18, 38 °C, 0.24 mL/min; A: water + 0.1% formic acid, pH 3; B: acetonitrile + 0.1% formic acid, pH 3; gradient (min/%B) 0/0 0.25/0 0.4/9 0.8/17 1.9/100 2.1/100 2.11/0 3/0
# Details: stereoisomer not certain
row,LC retention time,Structure (SMILES)
1,1.56 min,COc1ccc(C2CC(=O)c3c(O)cc(OC4OC(CO)C(O)C(O)C4OC4OC(C)C(O)C(O)C4O)cc3O2)cc1 (stereo unspecified) [Poncirin]
2,0.25 min,CN1C=CC=CC1=CN=O [Pyridine-2-aldoxime methochloride]
3,0.53 min,Cc1ncc(CO)c(CO)c1O [Pyridoxine]
4,1.32 min,"O=c1c(O[C@@H]2O[C@H](CO)[C@@H](O)[C@H](O)[C@H]2O)c(-c2ccc(O[C@@H]3O[C@H](CO)[C@@H](O)[C@H](O)[C@H]3O)c(O)c2)oc2cc(O)cc(O)c12 [Quercetin-3,4'-O-di-beta-glucopyranoside]"
5,1.43 min,O=c1c(OC2OCC(O)C(O)C2O)c(-c2ccc(O)c(O)c2)oc2cc(O)cc(O)c12 [Quercetin-3-D-xyloside]
6,1.46 min,CC(=O)OCC1OC(Oc2c(-c3ccc(O)c(O)c3)oc3cc(O)cc(O)c3c2=O)C(O)C(O)C1O (stereo unspecified) [Quercetin-3-O-glucose-6''-acetate]
7,1.46 min,CC1OC(Oc2c(-c3ccc(O)c(O)c3)oc3cc(O)cc(O)c3c2=O)C(O)C(O)C1O (stereo unspecified) [Quercitrin]
8,0.17 min,CC(O)CN (stereo not drawn) [R-(-)-1-Amino-2-propanol]
9,0.19 min,C[S+](CCC(N)C(=O)[O-])CC1OC(n2cnc3c(N)ncnc32)C(O)C1O [S-(5'-Adenosyl)-L-methionine chloride]
10,0.2 min,N[C@@H](CSCC(=O)O)C(=O)O [S-Carboxymethyl-L-cysteine]
11,1.06 min,CC(O)C(=O)SCC(NC(=O)CCC(N)C(=O)O)C(=O)NCC(=O)O (stereo unspecified) [S-Lactoylglutathione]
12,0.2 min,CSC[C@H](N)C(=O)O [S-Methyl-L-cysteine]
13,0.17 min,NC(CSS(=O)(=O)O)C(=O)O (stereo unspecified) [S-Sulfocysteine]
14,1.57 min,Cc1cc2nc3cc(C)c(N)cc3[n+](-c3ccccc3)c2cc1N [Safranine]
15,1.55 min,O=C(O)c1ccccc1O [Salicylic Acid]
16,0.16 min,CNCC(=O)O [Sarcosine]
17,1.58 min,O=C(O)CCCCCCCCC(=O)O [Sebacic acid]
18,1.44 min,COc1cc(C=CC(=O)O)cc(OC)c1O [Sinapic acid]
19,2.13 min,COc1cc(C=CCO)cc(OC)c1O [Sinapyl alcohol]
20,1.61 min,COc1ccc(-c2coc3cc(OC4OC(CO)C(O)C(O)C4O)cc(O)c3c2=O)cc1 (stereo unspecified) [Sissotrin]
21,0.22 min,CC(=O)C(=O)O [Sodium Pyruvate]
22,1.36 min,O=C(O)C(=O)Cc1ccccc1 [Sodium phenylpyruvate]
23,0.14 min,NCCCCNCCCN [Spermidine]

row,LC retention time,Structure (SMILES)
1,0.14 min,NCCCNCCCCNCCCN [Spermine]
2,1.4 min,O=C(O)CCCCCCC(=O)O [Suberic acid]
3,0.49 min,O=C(O)CCC(=O)O [Succinic acid]
4,0.22 min,OCC1OC(OC2(CO)OC(CO)C(O)C2O)C(O)C(O)C1O (stereo unspecified) [Sucrose]
5,0.16 min,NCCS(=O)(=O)O [Taurine]
6,0.19 min,Cc1ncc(C[n+]2csc(CCO)c2C)c(N)n1 [Thiamine hydrochloride]
7,0.19 min,Cc1ncc(C[n+]2csc(CCOP(=O)(O)O)c2C)c(N)n1 [Thiamine monophosphate chloride dihydrate]
8,1.11 min,Cc1cn(C2CC(O)C(CO)O2)c(=O)[nH]c1=O (stereo unspecified) [Thymidine]
9,1.57 min,O=C(C=Cc1ccc(O)cc1)OCC1OC(Oc2c(-c3ccc(O)cc3)oc3cc(O)cc(O)c3c2=O)C(O)C(O)C1O (stereo unspecified) [Tiliroside]
10,0.19 min,C[n+]1cccc(C(=O)[O-])c1 [Trigonelline hydrochloride]
11,0.18 min,C[N+](C)(C)[O-] [Trimethylamine N-oxide dihydrate]
12,0.21 min,O=c1ccn(C2OC(COP(=O)(O)OP(=O)(O)OC3OCC(O)C(O)C3O)C(O)C2O)c(=O)[nH]1 (stereo unspecified) [UDP-xylose]
13,0.31 min,O=c1cc[nH]c(=O)[nH]1 [Uracil]
14,0.26 min,O=c1ccn(C2OC(COP(=O)(O)O)C(O)C2O)c(=O)[nH]1 (stereo unspecified) [Uridine-5'-monophosphate]
15,0.66 min,O=c1ccn(C2OC(CO)C(O)C2O)c(=O)[nH]1 (stereo unspecified) [Uridine]
16,1.39 min,O=c1cc(-c2ccc(O)cc2)oc2c(C3OC(CO)C(O)C(O)C3O)c(O)cc(O)c12 (stereo unspecified) [Vitexin]
17,0.18 min,OC1COC(OC2COC(O)C(O)C2O)C(O)C1O (stereo unspecified) [Xylobiose]
18,0.16 min,O=P(O)(O)O[C@H]1O[C@H](CO)[C@H](O)[C@H](O)[C@H]1O [alpha-D-Galactose-1-phosphate dipotassium salt pentahydrate]
19,0.16 min,NCCC(=O)O [beta-Alanine]
20,0.24 min,NC(=O)c1ccc[n+](C2OC(COP(=O)([O-])O)C(O)C2O)c1 (stereo not drawn) [beta-Nicotinamide mononucleotide]
21,1.81 min,C=CC(C)(O)CCC=C(C)CCC=C(C)C (stereo not drawn) [cis-Nerolidol]
22,1.11 min,"OCC1OC(Oc2cc3c(OC4OC(CO)C(O)C(O)C4O)cc(O)cc3[o+]c2-c2ccc(O)c(O)c2)C(O)C(O)C1O (stereo unspecified) [cyanidin-3,5-di-O-glucoside chloride]"
23,0.18 min,NCC(=O)CCC(=O)O [delta-Aminolevulinic acid hydrochloride]

row,LC retention time,Structure (SMILES)
1,1.41 min,O=C1CC(c2ccc(O)c(O)c2)Oc2cc(OC3OC(CO)C(O)C(O)C3O)cc(O)c21 (stereo unspecified) [eriodictyol-7-O-glucoside]
2,0.17 min,NCCCC(=O)O [gamma-Amino-n-butyric acid]
3,0.55 min,NC(CCC(=O)NC(CS)C(=O)O)C(=O)O (stereo unspecified) [gamma-Glu-Cys]
4,1.45 min,COc1cc(-c2oc3cc(O)cc(O)c3c(=O)c2OC2OC(CO)C(O)C(O)C2O)ccc1O (stereo unspecified) [isorhamnetin-3-O-glucoside]
5,1.42 min,CC1OC(OCC2OC(Oc3c(-c4ccc(O)cc4)oc4cc(O)cc(O)c4c3=O)C(O)C(O)C2O)C(O)C(O)C1O (stereo unspecified) [kaempferol-3-O-rutinoside]
6,1.44 min,CC1OC(OC2C(Oc3cc(O)c4c(=O)c(O)c(-c5ccc(O)cc5)oc4c3)OC(CO)C(O)C2O)C(O)C(O)C1O (stereo unspecified) [kaempferol-7-O-neohesperidoside]
7,1.35 min,"O=c1cc(-c2ccc(O)c(OC3OC(CO)C(O)C(O)C3O)c2)oc2cc(OC3OC(CO)C(O)C(O)C3O)cc(O)c12 (stereo unspecified) [luteolin-3',7-di-O-glucoside]"
8,1.41 min,O=c1cc(-c2ccc(O)c(O)c2)oc2cc(OC3OC(CO)C(O)C(O)C3O)cc(O)c12 (stereo unspecified) [luteolin-7-O-glucoside]
9,2.13 min,O=C(O)C(O)C(O)C(O)C(O)C(=O)O (stereo unspecified) [mucic acid]
10,0.29 min,CCCCCCC(=O)O [n-heptanoic acid]
11,1.67 min,O=C1CC(c2ccc(O)cc2)Oc2cc(O)cc(O)c21 (stereo unspecified) [naringenin]
12,1.47 min,COc1ccccc1C(=O)O [o-Anisic Acid]
13,0.38 min,Cc1ncc(CO)c(C=O)c1O [pyridoxal hydrochrolide]
14,0.39 min,Cc1ncc(COP(=O)(O)O)c(C=O)c1O [pyridoxal-5'-phosphate hydrate]
15,0.38 min,C=CCC(=NOS(=O)(=O)O)SC1OC(CO)C(O)C(O)C1O (stereo unspecified) [sinigrin]
16,1.45 min,COc1cc(-c2oc3cc(O)cc(O)c3c(=O)c2OC2OC(CO)C(O)C(O)C2O)cc(OC)c1O (stereo unspecified) [syringetin-3-O-glucoside]
17,1.44 min,COc1cc(/C=C/C(=O)O)ccc1O [trans-4-Hydroxy-3-methoxycinnamic acid]
18,0.17 min,O=C(O)[C@@H]1C[C@@H](O)CN1 [trans-4-Hydroxy-L-proline]
19,0.63 min,O=C(O)C=C(CC(=O)O)C(=O)O [trans-Aconitic acid]
20,1.64 min,O=C(O)/C=C/c1ccccc1 [trans-Cinnamic acid]
21,1.16 min,CC(=CCNc1ncnc2c1ncn2C1OC(CO)C(O)C1O)CO (stereo not drawn) [trans-Zeatin-riboside]
22,0.38 min,O=C(O)C=Cc1cnc[nH]1 [urocanic acid]

row,Structure (SMILES),LC retention time
1,"CCCCCCCCCC(=O)OCC(O)COP(=O)([O-])OCC[N+](C)(C)C (stereo unspecified) [Phosphocholine,1-Decanoyl-2-Hydroxy-sn-Glycero-3-]",1.65 min
2,"CCCCCCCCCCCC(=O)OCC(O)COP(=O)([O-])OCC[N+](C)(C)C (stereo unspecified) [Phosphocholine,1-Lauroyl-2-Hydroxy-sn-Glycero-3-]",1.79 min
3,COc1cc2c(cc1O)C1Cc3ccc(OC)c(O)c3CN1CC2 (stereo unspecified) [Scoulerin],1.37 min
4,NCCc1c[nH]c2ccc(O)cc12 [Serotonin hydrochloride],1.08 min
5,CC1CCC2(NC1)OC1CC3C4CC=C5CC(O)CCC5(C)C4CCC3(C)C1C2C (stereo unspecified) [Solasodine],1.72 min
6,CN1C2CCC1CC(=O)C2 [Tropinone],0.24 min
7,NCCc1ccc(O)cc1 [Tyramine],0.67 min
8,C[N+](C)(C)CCOP(=O)([O-])OCC(O)CO (stereo unspecified) [sn-Glycero-3-phosphocholine 1:1 cadmium chloride adduct],0.17 min
